From ChEMBL document CHEMBL4130554, “Inducing Secondary Metabolite Production by Combined Culture of Talaromyces aculeatus and Penicillium variabile” (J Nat Prod, 2017)

What was measured:
K562 = assay: Cytotoxicity against human K562 cells by MTT method; assay type: functional, cell-based
MCF7 = assay: Cytotoxicity against human MCF7 cells by SRB method; assay type: functional, cell-based
HeLa = assay: Cytotoxicity against human HeLa cells by SRB method; assay type: functional, cell-based
HL-60 = assay: Cytotoxicity against human HL60 cells by MTT method
HCT-116 = assay: Cytotoxicity against human HCT116 cells by SRB method
A549 = assay: Cytotoxicity against human A549 cells by SRB method

SMILES	IC50 (K562) [µM]	IC50 (MCF7) [µM]	IC50 (HeLa) [µM]	IC50 (HL-60) [µM]	IC50 (HCT-116) [µM]	IC50 (A549) [µM]
COc1cccc2c1C(=O)c1c(O)c3c(c(O)c1C2=O)C[C@@](O)(C(=O)CO)C[C@@H]3O[C@H]1C[C@H](N)[C@H](O)[C@H](C)O1 [DOXORUBICIN]	0.6	0.6	0.5	–	–	–
COC(=O)[C@@H]1O[C@@H](/C=C/C=C/[C@H](C)C/C(C)=C/C=C/[C@@H](C)CCO)[C@@]2(C)O[C@@H]12	> 50	> 50	> 50	> 50	> 50	> 50
CC[C@H](C)/C=C/C=C(\C)C[C@@H](C)/C=C/C=C/[C@@H]1O[C@@H](C(=O)OC)[C@@H]2O[C@]12C	> 50	> 50	> 50	> 50	> 50	> 50
CC[C@H](C)/C=C/C=C(\C)C[C@@H](C)/C=C/C=C/[C@H]1OC(=O)C=C[C@]1(C)O	2.9	9.8	5.5	1.2	1.4	5.1
CC[C@@H](/C=C/C=C(\C)C[C@@H](C)/C=C/C=C/[C@@H]1O[C@@H](C(=O)OC)[C@@H]2O[C@]12C)CO	> 50	> 50	> 50	> 50	> 50	> 50
CC[C@H](C)/C=C/C=C(\C)C[C@@H](C)/C=C/C=C/[C@H]1OC(=O)[C@H](O)[C@@H]2O[C@]12C	> 50	> 50	> 50	> 50	> 50	> 50
